Data published in publication PMC9428149, “Tackling recalcitrant Pseudomonas aeruginosa infections in critical illness via anti-virulence monotherapy” (Nature Communications, 2022).
In brackets after ≈: the same amount, converted by molar mass. Like-named read-outs stand apart in the source and are kept apart here.

What was measured:
[1] = system: MvfR-regulated small molecules in PA14; assay: Production of HAQs, 2-AA, DHQ and AA in PA14 cultures (LC-MS); details: Pseudomonas aeruginosa
[2] = system: pqsA promoter (PA14 PpqsA-GFPASV); assay: pqsA-GFP reporter expression; assay type: cell-based, Pseudomonas aeruginosa; details: Pseudomonas aeruginosa
[3] = system: PA14 isogenic mutant ΔmvfR AT/P cells; assay: AT/P cell formation in ΔmvfR mutant (off-target); details: Pseudomonas aeruginosa, PA14, 24 h, read-out: AT/P cell formation, ΔmvfR + compound; PA14 about 100; single replicates (Figure 4b)
[4] = system: 16 MDR P. aeruginosa clinical isolates; assay: Pyocyanin production in MDR clinical isolates; details: Pseudomonas aeruginosa, 18 h, Control about 100, replicates
Procedure: The over-day culture was grown to OD600nm 1.5., diluted again at 1:10,000 in 5 mL LB and incubated with 10 μM of the test compound or the vehicle control for 18 hours at 37 °C and 200 rpm in an incubator shaker. After 18 h, 1 mL of culture was centrifuged for 2 min at 20.000 x g. The supernatant was transferred to a new tube, 200 μL of this were loaded in a flat-bottom 96-well plate, and the pyocyanin levels were quantified by measuring at OD690nm in the infinite F200 plate reader using the Magellan software (Tecan, Switzerland). The same procedure was also followed for the pyocyanin production assessment for all the P. aeruginosa clinical isolates assessed in this study. The percent of pyocyanin was calculated compared to the PA14 culture grown in the absence of compounds.
Pyocyanin production was measured in 16 P.
aeruginosa clinical isolates 18hr post-growth in the presence or absence of 10 µM of each NAM
compound. The percent of pyocyanin production was calculated by comparing the same strain grown
in the presence of the vehicle control. b.

[5] = system: pyocyanin production in PA14; assay: Pyocyanin production assay; details: Pseudomonas aeruginosa
Procedure: The over-day culture was grown to OD600nm 1.5., diluted again at 1:10,000 in 5 mL LB and incubated with 10 μM of the test compound or the vehicle control for 18 hours at 37 °C and 200 rpm in an incubator shaker. After 18 h, 1 mL of culture was centrifuged for 2 min at 20.000 x g. The supernatant was transferred to a new tube, 200 μL of this were loaded in a flat-bottom 96-well plate, and the pyocyanin levels were quantified by measuring at OD690nm in the infinite F200 plate reader using the Magellan software (Tecan, Switzerland). […] The percent of pyocyanin was calculated compared to the PA14 culture grown in the absence of compounds.
To determine the IC50 of pyocyanin production, we followed the same process as above. […] Using GraphPad Prism Software, the IC50 curve was plotted against percent inhibition of pyocyanin production at each concentration using PA14 in the absence of compounds as a control.

[6] = system: mvfR mutant constitutively expressing the pqsABCDE operon; assay type: cell-based; details: Pseudomonas aeruginosa, control about 100, single replicates (Figure 4a)
[7] = Solubility in iPBS pH 7.4 by HPLC; assay type: physicochemical; details: isotonic phosphate buffer (iPBS), aqueous with cosolvent or surfactant or cyclodextrin, kinetic from dmso stock; iPBS pH 7.4, HPLC; read-out: Solubility (M) in PBS
Procedure: Solubility of the 10 mM compounds dissolved in DMSO was tested in the isotonic phosphate buffer (iPBS) at pH 7.4 using High-Performance Liquid Chromatography (HPLC). For the preparation of iPBS phosphate-buffered saline tab (Sigma-Aldrich 08057-12Tab-F) is dissolved in 500 mL of deionized water and the final composition of the solution contains 10 mM PBS, 2.7 mM KCl, 140 mM NaCl and 0.05% Tween. A total 10 µL of the compound from a 10 mM stock solution in DMSO was added to the vial, and 190 µL of buffer was added to each vial and mixed with shaking at room temperature for 4 h. Thereafter the samples were filtered, and 160 µL of the sample was mixed with 40 µL of DMSO for the final injection. Ibuprofen (high solubility) and Progesterone (low Solubility) were used as standard compounds. Ammonium Acetate aqueous solution (50 mM, pH 7.4) and the acetonitrile were used as mobile phases A and B, respectively. The measurement of concentration was achieved by comparing of UV absorbance of the sample solution and the known standard solution following an HPLC separation using a generic fast gradient method. The solubility of each compound is expressed by the ratio of compound amount in the sample test solution to the amount of compound in the standard solution.

PA14 AT/P cells = assay: AT/P cells formation assay in PA14; assay type: cell-based, Pseudomonas aeruginosa; details: Pseudomonas aeruginosa, PA14, 24 h, read-out: inhibition of AT/P cells formation
MvfR protein (MvfRC87) = target: T1, MvfR protein (MvfRC87) (Pseudomonas aeruginosa, UniProt Q9I4X0); assay type: binding; details: SPR
T1 construct: The MvfRC87 protein purified as in Xiao et. al., 2006; made in house
Procedure: The selected compounds were tested for their ability to bind to MvfR. Target validation was carried out by using surface plasmon resonance (SPR). The MvfRC87 protein purified as in Xiao et. al., 2006[33] was covalently immobilized on a CM7 Series S sensor chip using an amine coupling reagent kit (GE Healthcare) at the range level of 3000 to 5000 response units (RU). RU was analyzed by Biacore T200 evaluation software 2.0 (GE Healthcare). The relative response units (RUs) 5 seconds before the end of the association were extracted from the double-reference-corrected sensor grams at different concentrations. These responses were plotted against their respective concentrations for MvfR inhibitor alone and in the presence of native MvfR ligand PQS and compared to the calculated responses for the mixture expected for different binding sites.

T1 sequence (Q9I4X0 87-332): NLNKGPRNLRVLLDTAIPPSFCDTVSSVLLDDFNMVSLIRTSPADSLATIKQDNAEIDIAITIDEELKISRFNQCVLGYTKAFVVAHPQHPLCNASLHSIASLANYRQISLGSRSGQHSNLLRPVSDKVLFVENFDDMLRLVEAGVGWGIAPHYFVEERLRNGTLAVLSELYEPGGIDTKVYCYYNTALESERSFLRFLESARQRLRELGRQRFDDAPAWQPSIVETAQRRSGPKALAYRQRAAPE

In the case of `N#Cc1ccc(NC(=O)CC(=O)Nc2ccc(Br)cc2)cc1` [D42], the activity at 50 µM ([1]; PA14, read-out: % Production 2-AA) is reported as 6%, the activity at 50 µM ([1]; PA14, read-out: % Production AA) is reported as 701% and the activity at 50 µM ([1]; PA14, read-out: % Production DHQ) is reported as 11%. The activity at 50 µM ([1]; PA14, read-out: % Production HHQ) was 2%, the activity at 50 µM ([1]; PA14, read-out: % Production HQNO) was 14% and the activity at 50 µM ([1]; PA14, read-out: % Production PQS) was 8%. It also gave an inhibition at 50 µM ([1]; PA14, read-out: HHQ production inhibition) of 89 to 99%, an inhibition at 50 µM ([1]; PA14, read-out: HQNO production inhibition) of 40 to 92% and an inhibition at 50 µM ([1]; PA14, read-out: PQS production inhibition) of 76 to 97%. For the same molecule, the inhibition at 50 µM ([1]; PA14, read-out: inhibition of 2-AA production) was 82 to 95%, the inhibition at 50 µM ([1]; PA14, read-out: inhibition of DHQ production) was 82 to 96% and the activity at 50 µM ([2]; PA14, read-out: % Production pqsA-GFP) was 8%. The IC50 ([2]; PA14, read-out: IC50 pqsA-GFP expression, PA14, 13 concentrations) was 0.92 µM, the activity at 10 µM [3] was 25.1% and the activity at 10 µM ([4]; read-out: Pyocyanin production relative to Control, clinical isolate LGR-4325) was 15.2%. For the same molecule, the activity at 10 µM ([4]; read-out: Pyocyanin production relative to Control, clinical isolate LGR-4326) was 9.87%, the activity at 10 µM ([4]; read-out: Pyocyanin production relative to Control, clinical isolate LGR-4327) was 23.8% and the activity at 10 µM ([4]; read-out: Pyocyanin production relative to Control, clinical isolate LGR-4328) was 15.7%. The activity at 10 µM ([4]; read-out: Pyocyanin production relative to Control, clinical isolate LGR-4330) was 16.4%, the activity at 10 µM ([4]; read-out: Pyocyanin production relative to Control, clinical isolate LGR-4331 (first section, r117)) was 17.2% and the activity at 10 µM ([4]; read-out: Pyocyanin production relative to Control, clinical isolate LGR-4331 (second section, r140)) was 10%. For the same molecule, the activity at 10 µM ([4]; read-out: Pyocyanin production relative to Control, clinical isolate LGR-4333) was 11.6%, the activity at 10 µM ([4]; read-out: Pyocyanin production relative to Control, clinical isolate LGR-4343) was 15.3% and the activity at 10 µM ([4]; read-out: Pyocyanin production relative to Control, clinical isolate LGR-4344) was 19.4%. It also gave an activity at 10 µM ([4]; read-out: Pyocyanin production relative to Control, clinical isolate LGR-4348) of 11.9%, an activity at 10 µM ([4]; read-out: Pyocyanin production relative to Control, clinical isolate LGR-4356) of 16.3% and an activity at 10 µM ([4]; read-out: Pyocyanin production relative to Control, clinical isolate LGR-4362) of 26.2%. For the same molecule, the activity at 10 µM ([4]; read-out: Pyocyanin production relative to Control, clinical isolate LGR-4363) was 20.8%, the activity at 10 µM ([4]; read-out: Pyocyanin production relative to Control, clinical isolate LGR-4364 (first section, r326)) was 16.1% and the activity at 10 µM ([4]; read-out: Pyocyanin production relative to Control, clinical isolate LGR-4364 (second section, r349)) was 16.4%. The activity at 50 µM ([5]; PA14, 18 h, read-out: % Production Pyocyanin) was 6%, the IC50 ([5]; PA14, read-out: IC50 pyocyanin production) was 1.34 µM and the activity at 50 µM ([6]; read-out: HQNO, ΔmvfR-pqsABCD strain) was 90.7%. For the same molecule, the activity at 50 µM ([6]; read-out: PQS, ΔmvfR-pqsABCD strain) was 98.9%, the solubility at 4 h [7] was 1.5e-05 M (≈ 5.37 µg/mL) and the inhibition at 10 µM (PA14 AT/P cells) was no less than 76%. For the same molecule, the “Response Unit (RU)” value (MvfR protein (MvfRC87); Concentration 1.00E-05 M) was 30 RU, the “Response Unit (RU)” value (MvfR protein (MvfRC87); Concentration 1.00E-06 M) was 23 RU and the “Response Unit (RU)” value (MvfR protein (MvfRC87); Concentration 1.00E-07 M) was 10.1 RU. The “Response Unit (RU)” value (MvfR protein (MvfRC87); Concentration 1.00E-08 M) was 2.1 RU, the “Response Unit (RU)” value (MvfR protein (MvfRC87); Concentration 3.16E-06 M) was 27.4 RU and the “Response Unit (RU)” value (MvfR protein (MvfRC87); Concentration 3.16E-07 M) was 16.8 RU. For the same molecule, the “Response Unit (RU)” value (MvfR protein (MvfRC87); Concentration 3.16E-08 M) was 5 RU.
